Source: patent US7906620B2, “Tumor associated antigen, peptides thereof, and use of same as anti-tumor vaccines” (Yeda Research and Development Co. Ltd., priority 2002, dated 2011)

Assays:
[1] = test system: peptide pulsed T2 cells; experiment: In vitro priming of human CTL precursors with 1-8D peptides; format: cell-based; details: for activating peripheral CTLp to lyse target cells in a peptide specific manner: PBMC of two normal donors, after 4 consecutive stimulations
Protocol: FIG. 10 are graphs showing PMBC from 4 donors checked for existence of CTL precursors. Left hand panel-peptide 1-6 stimulated CTLp. Middle Panel-peptide 3-5 stimulated CTLp. Right hand panel-peptide 3-7 stimulated CTLp. […] PBMC were supplemented with IL-7, and two days later IL-2 was added and renewed every three days. The rest of the stimulations were done every 7 days over peptide pulsed monocytes. Seven days after the third stimulation, lymphocytes were harvested and a cytolytic assay was performed using peptide pulsed (closed squares, closed circles, open triangles, X signs) or non-pulsed T2 cells (open circles) as targets. Closed squares represent CTLp from donor A, closed circles represent CTLp from donor B, open triangles represent CTLp from donor C, Xs represent CTLp from donor D, and open circles represent non-pulsed T2 cells.
In vitro priming of human CTL. Leukopheresis products of four healthy donors were obtained from Barzilai Medical Center (Ashkelon, Israel) according to Declaration of Helsinki Principles. PMBC were isolated by centrifugation on Ficoll-Plaque Plus gradients (Amersham, Sweden). The procedure was carried out according to Thurner et al., with minor modifications. Briefly, in vitro priming was done over autologous DC that were prepared from monocytes by IL-4 and GM-CSF treatment and matured with a IL-1β, IL-6, TNF-α and PGE2 cocktail. DC were pulsed with the synthetic peptides and PBMC were supplemented with IL-7. Two days later IL-2 was added and renewed every three days. The rest of the stimulations were done every 7 days over peptide pulsed monocytes. […]

[2] = molecular target: T1, HLA-A2.1 (Homo sapiens, UniProt P04439, D140Y/D185E/D98H/E176V/E277Q/G131W/G231S/I119V/I121R/I166T/I218V/L300P/L318F/N151K/N90K/P208A/P217A/Q86G/Q94H/R138H/R169H/T345S); experiment: T2 stabilization assay (peptide binding to HLA-A2.1); details: acid stripped T2 cells, peptide and recombinant β2m, BB7.2 mAb, FACS
T1 construct: endogenous in cells; host or cells: T2 cells (TAP-2-deficient lymphoblastoid line)
Protocol: T2 cells were acid stripped and incubated with the indicated peptide and recombinant β2m or with β2m alone as a negative control. FIG. 5D is the tyrosinase peptide as the positive control. Cells were stained with BB7.2 mAb and analyzed by FACS. The number of positive cells above control level is indicated for each of the peptides.
(§1) Intrigued by this finding, the laboratory of the present inventors focused on the 1-8D peptides. Peptide binding to HLA-A2.1 was verified by a T2 stabilization assay (Firat et al., 1999). […] 1-8D peptides were next tested for induction of anti-HCT/HHD CTL responses by vaccinating HHD mice with the 1-8D peptides (Carmon et al., 2000).

[3] = test system: peptide loaded on labeled RMA-S/HHD; experiment: Immunogenicity of peptides in HHD mice: vaccination with peptide-loaded RMA-S/HHD/B7.1, cytolytic assay on peptide-loaded targets; format: in vivo; details: for Score: immunogenic score: ratio of specific lysis, specific peptide vs tyrosinase peptide loaded on RMA-S/HHD, average of two experiments, positive above 125%; for antigenic / immunogenic in HHD mice: mouse, in vivo
Protocol: FIG. 4 is a graph of the results of in vitro cytolytic assays. Seven peptides are immunogenic. Peptides were loaded on RMA-S/HHD/B7.1, washed and irradiated. HHD mice were immunized three times as described in the materials and methods section in Example 1. In vitro cytolytic assays were performed on the relevant peptide as target and on an irrelevant peptide. The score was deduced from the ratio of the specific lysis that were obtained. The positive peptides (above 125%) are marked by arrows. Peptides 1-6, 3-5 and 3-7 are derived from “Human 1-8D gene”.
(§2) Vaccination. HHD mice were immunized i.p. 3 times at 7-day intervals with 2×10^6 irradiated (5000 rad) tumor cells, or irradiated peptide-loaded RMA-S/HHD/B7.1 transfectants. Spleens were removed on day 10 after the last immunization, and splenocytes were restimulated in vitro, either with irradiated tumor cells or with one third of the lymphocytes pre-pulsed with 100 μM synthetic peptides in opti-MEM (Life Technologies) for 2 hr at 37° C., 5% CO2. Restimulated lymphocytes were cultured in RPMI-HEPES medium containing 10% FCS, 2 mM glutamine, combined antibiotics, 1 mM sodium pyruvate, 25 mM HEPES, 5×10^−5M PME and 1% NEAA for 5 days. Viable cells (effectors) were separated by Lympholyte-M (Cedarlane, Hornby, Canada) gradient, resuspended and admixed at different ratios with 5,000 ^35S-methionine-labeled target cells. Cytolytic assays were carried out as described previously in Carmon et al., 2000. Extracts of tumor peptides or normal colon peptides were prepared from a pool of 6 post-surgical colon carcinoma specimens as described before Carmon et al., 2000.
The antigenic peptides were tested for their specific immunogenicity in HHD mice. HHD mice were vaccinated with RMA-S/HHD/B7.1 cells loaded with each of the peptides (listed in Table 3), their spleens were removed, and resensitized in vitro with synthetic peptides for four days. On the fifth day, a cytolytic assay was performed on two targets, either the peptide itself loaded on labeled RMA-S/HHD or the tyrosinase peptide as a negative control. The ratio of specific lysis between specific and tyrosinase peptides was defined as “immunogenic score”. This experiment was repeated twice and the average score of each of the antigenic peptides is specified (Table 3 and FIG. 4). The horizontal line in FIG. 4 represents the limit of 95% significance as defined by assuming normal distribution of scores.

[4] = test system: EL4/HHD/1-8D transfected cells; experiment: Lysis of 1-8D transfectants by CTL from peptide-immunized HHD mice; format: in vivo; details: high background lysis of EL4/HHD
Protocol: FIGS. 8A-8C are graphs that show 1-8D peptides 1-6 (FIG. 8A), 3-5 (FIG. 8B), and 3-7 (FIG. 8C) mount CTL responses that lyse 1-8D transfectants. Each peptide was loaded on RMA-S/HHD/B7.1 and used to immunize HHD mice. In vitro cytolytic assays were performed using EL4/HHD cells (open circles) and EL4/HHD/1-8D transfected cells (dark circles) as a target. The specific lysis of a representative experiment out of three is shown.
The 1-8D peptides are presented by HHD molecules on HCT/HHD cells. […] The plasmid was stably transfected into EL4 cells together with an HHD plasmid. HHD mice were immunized with the 1-8D peptides and a cytolytic assay was performed. The susceptibility of EL4/HHD/1-8D transfectant and the parental EL4/HHD cells to be lysed by anti-1-8D lymphocytes were compared. FIG. 8A-8C summarizes the results of these cytolytic experiments.

[5] = test system: HCT/HHD cells; experiment: Adoptive transfer of anti-1-8D peptide lymphocytes to nude mice bearing HCT/HHD footpad tumors; format: in vivo, CD1-nude mice; details: for day from which retardation in tumor growth is significant (P<0.05): 10^7 restimulated lymphocytes i.v. three days post challenge, IL-2, one tailed student t-test
Protocol: FIG. 9 is a graph showing that nude mice were challenged in the foot pad with HCT/HHD cells. Lymphocyte from vaccinated HHD mice were transferred together with IL-2 to the tumor bearing mice and the growth of the tumor was monitored twice a week.
Adoptive transfer. CD1-nude mice were challenged in the footpad with 3×10^6 HCT/HHD cells. Three days later, 10^7 viable re-stimulated effector cells were injected i.v. to the tail vein. One thousand units of IL-2, was injected i.p. twice a day for 7 consecutive days post transfer. Tumor growth was monitored by measuring the diameter of the footpad with calipers. Mice were sacrificed when one of the tumor diameters reached 10 mm.
The anti-tumor efficacy of anti-1-8D peptide CTL was evaluated next. A transfer model, in which HCT/HHD cells were inoculated to the footpads of nude mice, was established. Three days post footpad challenge, in vitro restimulated HHD lymphocytes were transferred i.v. and the tumor growth was monitored.

[6] = test system: HCT/HHD cells; experiment: Anti-HCT/HHD CTL response after vaccination of HHD mice with 1-8D peptides; format: in vivo; details: for lysis of HCT/HHD by peptide-induced CTL: HHD mice immunized with peptide loaded on RMA-S/HHD/B7.1; for ranking as vaccine against HCT/HHD (in vitro cytolytic capacity): mouse, in vivo
Protocol: FIG. 6 is a graph showing that the 1-8D peptides can mount anti-HCT/HHD CTL responses. HHD mice were immunized with HCT/HHD/B7.1 and with peptide loaded on RMA-S/HHD/B7.1. In vitro cytolytic assays were performed using HCT/HHD cells as targets. The specific lysis at E:T in 50:1 ratio of a representative experiment out of three is shown.
as §2, §1

[7] = test system: EL4/HHD cells; experiment: Immunogenicity of PSGR-derived peptides in HHD mice (peptide-loaded dendritic cells); details: mouse, in vivo
Protocol: FIGS. 15A and 15B are graphs showing immunogenicty of PSGR-derived peptides in HHD mice. The mice were immunized i.v. three time with 1×10^6 syngeneic dendritic cells (DCs) loaded with either PSGR-1 or PSGR-6 peptides. Spleens were removed on day 10 after the last immunization, and splenocytes were re-stimulated in vitro by 100 μM PSGR-1 (FIG. 15A) or PSGR-6 (FIG. 15B) derived peptides in OPTIMEM for 2 h at 37° C., 5% CO2, followed by restimulation of lymphocytes for 4 more days in RPMI-HEPES. CTL assays were performed on day 5 with individual PSGR-1 or PSGR-6 derived peptides loaded on EL4/HHD cells as targets. Non-relevant PAP derived peptide-loaded EL4/HHD cells were used as negative controls. 100:1, 50:1, 25:1, 12.5:1 effector-to-target ratios are shown.
The immunogenicity of the peptides, namely their potential to induce T cell responses, was subsequently examined in an in vivo model. A strain of β2 microglobulin (β2m) HLA-A2.1 Monochain Transgenic, H-2D^b−/−Xβ2m^−/− double knockout mice (HHD mice) was used. Upon vaccination of these mice, a repertoire of human HLA-A2.1 restricted CTLs is produced. The lysis patterns of each of the individual peptides loaded on target cells were first evaluated following immunization with syngeneic dendritic cells pulsed with pools of 2-4 synthetic peptides derived from each examined protein.

[8] = test system: peptide loaded on labeled RMA-S/HHD; details: F. A. Lemonnier, unpublished; cited from earlier work
[9] = healthy donor PBMC, peptide pulsed vs non-pulsed T2 targets

Sequence | activating peripheral CTLp to lyse target cells in a peptide specific manner [1] | CTL activity of stimulated CTLp, donor A [1, 9] | CTL activity of stimulated CTLp, donor B [1, 9] | CTL activity of stimulated CTLp, donor C [1, 9] | binding to HLA-A2.1 (stabilization of HLA-A2 on T2 cells) [2] | Score [3] | antigenic / immunogenic in HHD mice [3] | lysis of 1-8D transfectant compared to EL4/HHD cells [4] | day from which retardation in tumor growth is significant (P<0.05) [5] [days] | lysis of HCT/HHD by peptide-induced CTL [6] | ranking as vaccine against HCT/HHD (in vitro cytolytic capacity) [6] | level of immunogenicity in HHD mice [7] | CTL activity of stimulated CTLp, donor D [1, 9] | effect on in vivo growth of HCT/HHD ([5]; adoptive transfer, nude mice) | immunogenicity in the HHD model [8]
EMKEEQEV (listed as Homo sapiens) [Peptide 1-6, Human 1-8D gene from interferon inducible gene 20-28] | incompetent | not | low yet specific CTL activity | not | stabilize HLA-A2 on T2 cells | 181.3 | antigenic and immunogenic | better lysed | 13 | lyse the human colon carcinoma line HCT-15-HHD | intermediate | – | – | – | –
GLEKAHFWV (listed as Homo sapiens) [PSGR-6, PSGR start position 18] | – | – | – | – | – | – | – | – | – | – | – | low | – | – | –
KCLNIWALI (listed as Homo sapiens) [Peptide 3-7, Human 1-8D and 1-8U genes from interferon inducible genes 103-111] | highly efficient | high CTL activity | high CTL activity | low activity | stabilize HLA-A2 on T2 cells | 487.5 | antigenic and immunogenic | better lysed | 13 | lyse the human colon carcinoma line HCT-15-HHD | least effective | – | low activity | least effective | –
LILGIFMTI (listed as Homo sapiens) [Peptide 3-5, Human 1-8D gene from interferon inducible gene 110-118] | incompetent | – | low yet specific CTL activity | not and low yet specific CTL activity | stabilize HLA-A2 on T2 cells | 176.7 | antigenic and immunogenic | roughly equal | 11 | lyse the human colon carcinoma line HCT-15-HHD | most effective | – | – | – | –
TLNAWVKVV [HIV derived peptide] | – | – | – | – | – | – | – | – | – | – | – | – | – | – | weak immunogen
